How the values were obtained:
[1] = system: Human immunodeficiency virus; assay: Antiviral activity against HIV LAI infected in human MT2 cells assessed as inhibition of viral growth; assay type: functional, organism-based; settings: Human immunodeficiency virus 1, LAI
[2] = target: Human immunodeficiency virus type 1 protease (Human immunodeficiency virus 1, UniProt Q72874); assay: Inhibition of HIV-1 protease expressed in Escherichia coli assessed as inhibition constant using Ac-Thr-Ile-Met-Met-Gln-Arg as substrate preincubated for 10 mins followed by substrate addition by HPLC analysis

SMILES	IC50 [1] [nM]	Ki [2] [nM]
COc1ccc(S(=O)(=O)N(CC(C)C)C[C@@H](O)[C@H](Cc2ccccc2)NC(=O)c2cc(C)cc(Nc3nc(-c4cccnc4)cs3)c2)cc1	> 1000	–
COc1ccc(S(=O)(=O)N(CC(C)C)C[C@@H](O)[C@H](Cc2ccccc2)NC(=O)c2ccc(C)c(Nc3nc(-c4cccnc4)cs3)c2C)cc1	510	–
COc1ccc(S(=O)(=O)N(CC(C)C)C[C@@H](O)[C@H](Cc2ccccc2)NC(=O)c2ccc(C)c(Nc3nc(C)cs3)c2)cc1	> 1000	26.5
COc1ccc(S(=O)(=O)N(CC(C)C)C[C@@H](O)[C@H](Cc2ccccc2)NC(=O)c2cc(Nc3nc(C)cs3)ccc2C)cc1	> 1000	–
Cc1ccc(C(=O)N[C@@H](Cc2cc(F)cc(F)c2)[C@H](O)CN(CC(C)C)S(=O)(=O)c2ccc(N)cc2)cc1Nc1nccc(-c2cccnc2)n1	212	–
COc1ccc(S(=O)(=O)N(CC(C)C)C[C@@H](O)[C@H](Cc2cc(F)cc(F)c2)NC(=O)c2ccc(C)c(Nc3nccc(-c4cccnc4)n3)c2)cc1	124	–
COc1ccc(S(=O)(=O)N(CC(C)C)C[C@@H](O)[C@H](Cc2ccccc2)NC(=O)c2ccc(C)c(Nc3nc(C(F)(F)F)cs3)c2)cc1	> 1000	–
CC(C)CN(C[C@@H](O)[C@H](Cc1ccccc1)NC(=O)O[C@H]1CO[C@H]2OCC[C@H]21)S(=O)(=O)c1ccc(N)cc1	2.1	–
COc1ccc(S(=O)(=O)N(CC(C)C)C[C@@H](O)[C@H](Cc2ccccc2)NC(=O)c2ccc(C)c(Nc3nccc(-c4cccnc4)n3)c2)cc1	154	0.028
COc1ccc(S(=O)(=O)N(CC(C)C)C[C@@H](O)[C@H](Cc2ccccc2)NC(=O)c2cccc(Nc3nc(C(F)(F)F)cs3)c2C)cc1	> 1000	–
COc1ccc(S(=O)(=O)N(CC(C)C)C[C@@H](O)[C@H](Cc2ccccc2)NC(=O)c2cc(C)cc(Nc3nc(C)cs3)c2)cc1	> 1000	–
COc1ccc(S(=O)(=O)N(CC(C)C)C[C@@H](O)[C@H](Cc2ccccc2)NC(=O)c2cccc(Nc3nc(C)cs3)c2C)cc1	> 1000	–
COc1ccc(S(=O)(=O)N(CC(C)C)C[C@@H](O)[C@H](Cc2ccccc2)NC(=O)c2cccc(Nc3nc(-c4cccnc4)cs3)c2C)cc1	> 1000	19.3
COc1ccc(S(=O)(=O)N(CC(C)C)C[C@@H](O)[C@H](Cc2ccccc2)NC(=O)c2cc(Nc3nc(-c4cccnc4)cs3)ccc2C)cc1	580	8.7
Cc1ccc(C(=O)N[C@@H](Cc2ccccc2)[C@H](O)CN(CC(C)C)S(=O)(=O)c2ccc(N)cc2)cc1Nc1nccc(-c2cccnc2)n1	66.8	–
COc1ccc(S(=O)(=O)N(CC(C)C)C[C@@H](O)[C@H](Cc2ccccc2)NC(=O)c2ccc(C)c(Nc3nc(-c4cccnc4)cs3)c2)cc1	390	–
COCc1csc(Nc2ccc(C)c(C(=O)N[C@@H](Cc3ccccc3)[C@H](O)CN(CC(C)C)S(=O)(=O)c3ccc(OC)cc3)c2)n1	630	–

Reference: ChEMBL document CHEMBL5321239, “Exploration of imatinib and nilotinib-derived templates as the P2-Ligand for HIV-1 protease inhibitors: Design, synthesis, protein X-ray structural studies, and biological evaluation” (Eur J Med Chem, 2023)
